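Interpolation was linear, between the two tested concentrations surrounding the appropriate level; five concentrations were tested over 48 hours in 96-well plates. GI50: concentration for 50% inhibition of growth.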 Active and inactive are the calls of the source. Rule as the data show it: active = GI50 up to about 1.1 µM and inactive = higher.
Columns and labels:
Assay in all cases: NCI anticancer screen, dose series, 48 h
[1] = tested on: COLO 205
[2] = tested on: KM-20L2
[3] = tested on: LXFL 529
[4] = tested on: OVCAR-4
[5] = tested on: RXF 631
[6] = tested on: SNB-78
[7] = tested on: XF498
[8] = tested on: 786-0
[9] = tested on: HOP-18

Measured: GI50

O=[N+]([O-])c1nc(-c2ccccn2)[nH]c1[N+](=O)[O-]
inactive: [1] 45.5 µM | [2] 39.6 µM | [3] 89.1 µM | [4] 44.2 µM | [5] 57.8 µM | [6] > 100 µM | [7] > 100 µM

O=C(O)C1(Cc2ccccc2)Cc2ccccc2C1
inactive: [1] > 100 µM | [4] > 100 µM

COc1cc(C2=C(C#N)C(N)OC3=C2COc2ccccc23)cc(OC)c1OC (stereo not given)
inactive: [1] > 100 µM | [4] 5.22 µM

CN1C=C(C(N)=O)C2CC(O)[C@@](NC(=O)CS(N)(=O)=O)(C(=O)O)C2C1 (stereo not given in full)
inactive: [8] 3.61 µM | [1] 14.1 µM | [9] 8.41 µM | [2] 3.79 µM | [4] 2.09 µM | [5] 2.98 µM | [6] 2.75 µM | [7] 1.27 µM

C[N+](C)(CCCCCC[N+](C)(C)CCCN1C(=O)c2cccc3cccc(c23)C1=O)CCCN1C(=O)c2cccc3cccc(c23)C1=O
inactive: [1] > 100 µM | [4] > 100 µM

CC12CCC3=C(CSC4=C3CSc3ccccc34)C1=CCCC2=O (stereo not given)
inactive: [1] 20.3 µM | [9] 39.3 µM | [2] 51.6 µM | [3] 37.1 µM | [4] 14.8 µM | [7] 19.7 µM

S=C1SC(=N\c2ccccc2)/C(=N/c2ccccc2)N1c1ccc2ccccc2c1
inactive: [1] > 100 µM | [4] 80.7 µM

CN(C)CCCNC(=O)c1cccc2ccccc12
inactive: [3] > 100 µM | [4] > 100 µM | [6] > 100 µM | [7] > 100 µM

C[C@H]1SC(c2ccc(Cl)cc2Cl)N(NC(=O)c2ccncc2)C1=O (stereo not given in full)
inactive: [1] 37.7 µM

O=C(Nc1ccn(CCO)c(=O)n1)c1ccccc1
inactive: [8] > 100 µM | [1] > 100 µM | [9] > 100 µM | [2] > 100 µM | [3] > 100 µM | [4] > 100 µM | [5] > 100 µM | [6] > 100 µM

Cc1cc(Cl)cc2c1NC(=O)C2(O)CC(=O)c1ccco1 (stereo not given)
inactive: [8] 54.7 µM | [1] > 100 µM | [9] 4.33 µM | [3] > 100 µM | [4] 12.3 µM | [5] > 100 µM | [6] > 100 µM | [7] > 100 µM
